In patent US11524962B2, “Substituted pyrrolo[2,3-d]pyrimidines as inhibitors of protein arginine methyl transferase 5 (PRMT5)” (PRELUDE THERAPEUTICS, INCORPORATED, priority 2017, dated 2022) one finds concentration and IC50 data, which are given here for 3 compounds.

For orientation: IC50 means the concentration that gives 50% inhibition.

The structures appear in SMILES notation. Where two headings read alike, the source gives them in different places.

Data set [1] in a line: In vivo brain exposure study in mouse. The settings on record: po, mouse CD-1 male, 10 mg/kg p.o. How it is done:
In a mouse (CD-1, male) brain exposure cassette study, Examples 2 and 6 were dosed together at 10 mg/kg each (0.5% Na CMC+0.5% Tween80, solution) via oral gauge (p.o.). At 3 time points (N=3), 2h, 4h and 8h, plasma and brain samples were analyzed for average drug concentrations.
In a mouse (CD-1, male) brain exposure study, Examples 11 was dosed at 10 mg/kg each (0.5% Na CMC+0.5% Tween80, solution) via oral gauge (p.o.). At 3 time points (N=3), 1 h, 2h and 4h, plasma and brain samples were analyzed for average drug concentrations.

The next data set has as its system U-87 MG cells. Description: Cell proliferation assay in U-87 MG cells. Particulars: Homo sapiens, 240 h, day 10, read-out: Prolif_U87 IC50. The class given is cell-based. How it is done:
One day before experiment, Granta-519 cells were passaged to a density of 0.5×10^6 cells/ml. U-87 MG cells were trypsinized and 2,000 cells were seeded into 96-well plates and allow to grow overnight. On the day of experiment (day 0), Granta-519 Cells were spun down at 1,500 rpm for 4 min, resuspended in fresh medium to 0.5×10^6 cells/ml and 190 ul of cells were added to 96 well plates. For U-87 MG cells, old medium was removed and replaced with 190 uL fresh medium. Compound working stocks were first diluted at 1:50 with fresh medium in 96 well plate and 10 μL of diluted drugs were added to 96 well plates containing cells and incubated for 3 days. DMSO was used a vehicle control.
One day 3, 50 uL of Granta-519 cells were transferred to a new 96-well plate and 140 uL fresh medium was added. For U-87 MG cells, old medium was removed and replaced with 190 uL fresh medium. Compound working stocks were freshly diluted at 1:50 with medium and 10 μL of diluted drugs were added to cells and grow for 3 additional days. The same process was repeated on day 6. Cells were allowed to grow for additional 4 days.
On day 10, 100 uL Granta-519 cells were transferred to a new 96 well plate and 10 μL of Cell Counting Kit-8 (CCK-8, Jojindo, CK04-13) solution was added. For U-87 MG cells, old medium was removed and replaced with 100 uL fresh medium and 10 uL CCK-8 solution was added. Plates were incubated in CO2 incubator for 2 hours (Granta-519 cells) or 30 min (U-87 MG cells) and OD450 values were measured with a microplate reader (iMark microplate reader, Bio-Rad). Percentage of viable cells, relative to DMSO vehicle control, were calculated and plotted in Graphpad Prism ([Inhibitor]vs. normalized response−Variable slope) to determine proliferation IC50 values on day 10.
These cell proliferation procedures produced the data in Table 7.

The subject of data set [2] is Symmetric Di-Methyl Arginine (sDMA) marks in U-87 MG cells. Description: sDMA Western blot / In Cell Western in U-87 MG cells. Particulars: Homo sapiens, 72 h, 3 days, read-out: sDMA_U87 IC50. In kind it is cell-based. How it is done:
Compound titration and cell culture: Compounds were dissolved in DMSO to make 10 mM stock and 3-fold series dilutions were further conducted to make working stocks top at 1 mM. Granta-519 cells were maintained in PRMI 1640 (Corning Cellgro, Catalog #: 10-040-CV) supplemented with 10% v/v FBS (GE Healthcare, Catalog #: SH30910.03) and U-87 MG cells were maintained in DMEM (Corning Cellgro, Catalog #: 10-013-CV) with 10% FBS and 2 mM Glutamin (Corning Cellgro, Catalog #25005CV).
To determine enzyme inhibition IC50 values in Granta-519 and U-87 MG cells using Western Blot analysis. One day before experiment, Granta-519 cells were passaged to a density of 0.5×10^6 cells/ml. U-87 MG cells were trypsinized and 4×10^5 cells were seeded into 6-well plates and allow to grow overnight. The next day, Granta-519 cells were spun down at 1,500 rpm for 4 min, resuspend in fresh medium at 0.5×10^6 cells/ml and 3 mL of culture (1.5×10^6 cells) were seeded into 6 well plate. Eight-point, 3-fold serial dilutions of compound working stocks were added to cells (3 ul, 1:1,000 dilution, DMSO concentration was 0.1%; final top concentration at 1 uM) and incubated for 3 days. Cells incubated with DMSO was used as a vehicle control.
Cells were harvested 3 days later, resuspended in 15 uL PBS, lysed in 4% SDS, and homogenized by passing through homogenizer column (Omega Biotek, Catalog #: HCR003). Total protein concentrations were determined by BCA assay (ThermoFisher Scientific, Catalog #: 23225). Lysates were mixed with 5× Laemmli buffer and boiled for 5 min. Forty ug of total protein was separated on SDS-PAGE gels (Bio-Rad, catalog #: 4568083, 4568043), transferred to PVDF membrane, blocked with 5% dry milk (Bio-Rad, Catalog #: 1706404) in TBS with 0.1% v/v Tween 20 (TBST) for 1 hour at room temperature (RT), and incubated with primary antibodies (sDMA: Cell signaling, Catalog #: 13222, 1:3,000; β-Actin: sigma, Catalog #: 1:5,000) in 5% dry milk in TBST at 4° C. overnight. The next day, membranes were washed with TBST, 5×5 min, and incubated with HRP conjugated seconded antibody (GE Healthcare; Catalog #: NA934-1ML, NA931-1ML; 1:5,000) for 2 hours at RT, followed by 5×5 min washes with TBST, and incubation with ECL substrates (Bio-Rad, Catalog #: 1705061, 1705062). Chemiluminescent signal was captured with Fluochem HD2 imager (Proteinsimple). SmD3me2s bands were quantified by ImageJ. Signals were normalized to β-Actin and DMSO control. IC50 values were calculated using Graphpad Prism ([Inhibitor]vs. normalized response−Variable slope).
U87-MG cells were trypsinized one day before the experiment, seeded into a 384-well plate at 2500 cells/well using a Multidrop Combi Dispenser (ThermoFisher) and allowed to grow overnight. The next day (day 0), a series of 9-point, 3-fold serial dilutions of compounds were prepared and dispensed into wells from a 1 mM stock solution using a TECAN digital dispenser (D300e) and the DMSO % concentration was normalized to 0.1%. Three days later, media was removed, and cells were processed as described above.
To determine IC50 values, the ratio for each well was calculated (sDMA 800 nm value/DRAQ5 700 nm value). Each plate included 28 negative control wells (DMSO only, minimum inhibition) and 18 positive control wells for maximum inhibition (treated with 3 uM of a reference compounds, background wells). The average ratios of minimum and maximum inhibition controls were calculated and used to determine the percentage of sDMA, relative to DMSO, for each well in the plate.
These procedures generated the sDMA data in Table 7.
On the technique in general: Immunoblotting shows a protein as a band on a membrane.

[3] abbreviates: cassette, brain, read-out: Brain-2 h.
Setting [4] is: cassette, brain, read-out: Brain-4 h.
[5] abbreviates: cassette, brain, read-out: Brain-8 h.
[6] abbreviates: cassette, plasma, read-out: Plasma-2 h.
The mark [7] stands for this setting: cassette, plasma, read-out: Plasma-4 h.
Setting [8] is: cassette, plasma, read-out: Plasma-8 h.

For the compound `Nc1ncnc2c1ccn2[C@@H]1O[C@H]([C@H](O)c2ccc3c(c2)CC3)[C@@H](O)[C@H]1O` [Example 2, (2R,3R,4S,5R)-2-(4-amino-7H-pyrrolo[2,3-d]pyrimidin-7-yl)-5-((R)-bicyclo[4.2.0]octa-1(6),2,4-trien-3-yl(hydroxy)methyl)tetrahydrofuran-3,4-diol], the concentration at 2 h was 244 ng/g in data set [1] (setting [3]) and 1610 ng/mL in data set [1] (setting [6]). Moreover, the values for the concentration at 4 h in data set [1] (setting [4]) and in data set [1] (setting [7]) were 174 ng/g and 802 ng/mL, respectively. Besides, the concentration at 8 h in data set [1] (setting [5]) was found to be 76.2 ng/g; in data set [1] (setting [8]), 178 ng/mL.
With `Nc1ncnc2c1c(F)cn2[C@@H]1O[C@H]([C@H](O)c2ccc3c(c2)CC3)[C@@H](O)[C@H]1O` [Example 6, (2R,3R,4S,5R)-2-(4-amino-5-fluoro-7H-pyrrolo[2,3-d]pyrimidin-7-yl)-5-((R)-bicyclo[4.2.0]octa-1(6),2,4-trien-3-yl(hydroxy)methyl)tetrahydrofuran-3,4-diol], the concentration at 2 h came out at 183 ng/g in data set [1] (setting [3]) and 380 ng/mL in data set [1] (setting [6]). Further, the concentration at 4 h in data set [1] (setting [4]) turned out to be 45.9 ng/g; in data set [1] (setting [7]), 138 ng/mL. In addition, the concentration at 8 h in data set [1] (setting [5]) came to 50.5 ng/g; in data set [1] (setting [8]), 33.7 ng/mL. The half-inhibitory concentration (IC50) is 115 nM in the data set with U-87 MG cells and 94 nM in data set [2].
For `Cc1ncnc2c1ccn2[C@@H]1O[C@H]([C@H](O)c2ccc3c(c2)CC3)[C@@H](O)[C@H]1O` [Example 11, (2R,3S,4R,5R)-2-((R)-bicyclo[4.2.0]octa-1(6),2,4-trien-3-yl(hydroxy)methyl)-5-(4-methyl-7H-pyrrolo[2,3-d]pyrimidin-7-yl)tetrahydrofuran-3,4-diol], the concentration at 1 h in data set [1] (brain, read-out: Brain-1 h) was 188 ng/g; in data set [1] (plasma, read-out: Plasma-1 h), 207 ng/mL. Besides, the concentration at 2 h in data set [1] (brain, read-out: Brain-2 h) came out at 85.7 ng/g; in data set [1] (plasma, read-out: Plasma-2 h), 148 ng/mL. For the same compound, the concentration at 4 h is 50.2 ng/g in data set [1] (brain, read-out: Brain-4 h) and 53.6 ng/mL in data set [1] (plasma, read-out: Plasma-4 h). The IC50 in the data set on U-87 MG cells came out at 206 nM; in data set [2], 53 nM.
